A short description of series [1]: Cytotoxicity against mock-infected human CEM cells assessed as growth inhibition. The class given is cell-based, CCRF-CEM.
Series [2] deals with Human alphaherpesvirus 1. Kind of series: Antiviral activity against Human simplex virus 1 KOS infected in human HEL cells assessed as reduction of virus-induced cytopathicity measured at day 3 by microscopic analysis. The class given is functional, organism-based. Conditions: Human alphaherpesvirus 1, KOS, 72 h. For orientation: Damage to the host cells serves as the signal in cytopathic effect assays.

A short description of series [3]: Cytotoxicity against human HuH7 cells assessed as reduction of cell density. The class given is cell-based, Huh-7.
Series [4] relates to Human immunodeficiency virus 2. Kind of series: Antiviral activity against wild type HIV-2 ROD infected in human CEM cells assessed as inhibition of syncytia formation after 4 days by microscopic analysis. The series is classed as functional, organism-based. Conditions: Human immunodeficiency virus 2, ISOLATE ROD, CCRF-CEM, 96 h.
Series [5] relates to Vaccinia virus. Briefly: Antiviral activity against Vaccinia virus infected in human HEL cells assessed as reduction of virus-induced cytopathicity measured at day 3 by microscopic analysis. The series is classed as functional, organism-based. Conditions: Orthopoxvirus vaccinia, 72 h.
The nature of series [6]: Prodrug conversion assessed as snake venome phosphodiesterase-mediated thiophosphonate monoester formation at 5 mM. The series is classed as ADME. Conditions: crotalus adamanteus, 5000 µM.
For series [7], the system named is Human immunodeficiency virus 1. Kind of series: Antiviral activity against wild type HIV-1 3B infected in human CEM cells assessed as inhibition of syncytia formation after 4 days by microscopic analysis. The series is classed as functional, organism-based. Conditions: Human immunodeficiency virus 1, 3B, CCRF-CEM, 96 h.
Series [8] has as its system Human alphaherpesvirus 1. Briefly: Antiviral activity against thymidine kinase-deficient Human simplex virus 1 KOS infected in human HEL cells assessed as reduction of virus-induced cytopathicity measured at day 3 by microscopic analysis. Conditions: Human alphaherpesvirus 1, KOS, 72 h. The class given is functional, organism-based.
The next series has as its system Hepatitis B virus. Briefly: Antiviral activity against wild type HBV transfected in human HuH7 cells assessed as reduction of viral DNA level after 7 days by qPCR analysis. Conditions: Huh-7, 168 h. The series is classed as functional, organism-based. (Quantitative PCR measures a nucleic acid by following its amplification.)
The nature of series [9]: Cytotoxicity against human HEL cells assessed as effect on cell morphology. The class given is cell-based.
The next series deals with Human alphaherpesvirus 2. Briefly: Antiviral activity against Human simplex virus 2 G infected in human HEL cells assessed as reduction of virus-induced cytopathicity measured at day 3 by microscopic analysis. Conditions: Human alphaherpesvirus 2, strain G, 72 h. The series is classed as functional, organism-based.
Series [10] in a line: Prodrug conversion assessed as snake venome phosphodiesterase-mediated PMPA formation at 5 mM. Conditions: crotalus adamanteus, 5000 µM. The series is classed as ADME.
Series [11] is described as follows: Half life of the compound in presence of carboxyesterase. The series is classed as physicochemical.
Series [12] in a line: Prodrug conversion assessed as snake venome phosphodiesterase-mediated (R)-9-[2-(Thiophosphonomethoxy)propyl]adenine disodium salt formation at 5 mM. The series is classed as ADME. Conditions: crotalus adamanteus, 5000 µM.
Series [13] can be described thus: Prodrug conversion assessed as snake venome phosphodiesterase-mediated PMEA formation at 5 mM. The class given is ADME. Conditions: crotalus adamanteus, 5000 µM.
In series [14] the test system is Vaccinia virus. Kind of series: Antiviral activity against Vaccinia virus infected in human HEL cells assessed as reduction of virus-induced cytopathicity at 200 uM measured at day 3 by microscopic analysis. The class given is functional, organism-based. Conditions: Orthopoxvirus vaccinia.
A short description of series [15]: Prodrug conversion assessed as snake venome phosphodiesterase-mediated phosphonate monoester formation at 5 mM. The series is classed as ADME. Conditions: crotalus adamanteus, 5000 µM.
Series [16] can be described thus: Stability of the compound in RPMI-1640 assessed as half life of first step of hydrolysis. The series is classed as physicochemical.
A short description of series [17]: Stability of the compound in DMEM assessed as half life of first step of hydrolysis. The class given is physicochemical.

Experimental findings from ChEMBL document CHEMBL2384920, “Ester prodrugs of acyclic nucleoside thiophosphonates compared to phosphonates: synthesis, antiviral activity and decomposition study” (Eur J Med Chem, 2013) are described below.

The source made the active and inactive calls. No cut-off for these calls is given here.

For orientation: CC50 means the concentration giving 50% cytotoxicity. A word on the EC50: it is the midpoint of the concentration-response curve. Turning to `CC(C)(C)C(=O)OCOP(=S)(COCCn1cnc2c(N)ncnc21)OCOC(=O)C(C)(C)C`, the CC50 was 2000 nM in series [1] and above 25000 nM in [3]. Further, the EC50 in the series with Human alphaherpesvirus 1 [2] was 3900 nM; in [4], at least 200 nM; with Vaccinia virus [5] it was 29000 nM; in [7] it was at least 200 nM; in the series with Human alphaherpesvirus 1 [8], 3900 nM; with Hepatitis B virus it was 1450 nM. In addition, the 50% effective concentration (EC50) with Human alphaherpesvirus 2 was found to be 3900 nM. Moreover, in [6], the Drug metabolism entry is “Active”. For the same compound, the MCC in series [9] is above 50 µM.

As for `CC(C)OC(=O)OCOP(=S)(CO[C@H](C)Cn1cnc2c(N)ncnc21)OCOC(=O)OC(C)C`, the CC50 in series [1] and in series [3] was above 25000 nM in each case. Further, the concentration giving a half-maximal response (EC50) in the series with Human alphaherpesvirus 1 [2] was above 50000 nM; in series [4] it was 130 nM; with Vaccinia virus [5], above 50000 nM; in series [7], 92 nM; in the series with Human alphaherpesvirus 1 [8], above 50000 nM; with Hepatitis B virus, 1140 nM. In addition, the half-maximal effective concentration (EC50) in the series on Human alphaherpesvirus 2 is above 50000 nM. Further, in [6], the Drug metabolism result is “Active”. Further, in series [9], the MCC is above 50 µM.

As a reminder, the half-life is how long it takes for the measured level to halve. With `CC(C)OC(=O)OCOP(=O)([O-])CO[C@H](C)Cn1cnc2c(N)ncnc21.[Na+]`, the Drug metabolism result in series [10] is recorded as “Active”. The half-life in series [11] was above 7 h.

For `CC(C)OC(=O)OCOP([O-])(=S)CO[C@H](C)Cn1cnc2c(N)ncnc21.[Na+]` (some centres undefined), the Drug metabolism result in series [12] is recorded as “Active”.

Consider `CC(C)(C)C(=O)OCOP(=O)([O-])COCCn1cnc2c(N)ncnc21.[Na+]`, for which the Drug metabolism entry in series [13] is given as “Active”.

Take `Nc1ncnc2c1ncn2CCOCP(=O)(O)O`: the outcome with Vaccinia virus [14] was inactive.

Take `Nc1ncnc2c1ncn2CCOCP(=O)(O)S` (centres undefined): the result in the series on Vaccinia virus [14] was Active.

Take `Nc1nc2c(ncn2COCCO)c(=O)[nH]1` [ACYCLOVIR]: the EC50 with Vaccinia virus [5] was above 250000 nM; in the series on Human alphaherpesvirus 1 [8], 29000 nM. The MCC in series [9] is above 250 µM.

Turning to `CC(C)(C)C(=O)OCOP(=O)(COCCn1cnc2c(N)ncnc21)OCOC(=O)C(C)(C)C` [ADEFOVIR DIPIVOXIL], the Drug metabolism result in series [15] is “Active”. For the same compound, the figures for the CC50 in [1] and in series [3] were 1600 nM and above 25000 nM, respectively. The half-life in [11] is above 7 h; in [16], 1 h; in series [17] it was 1 h. The EC50 with Human alphaherpesvirus 1 [2] came to 200 nM; in series [4] it was 62 nM; in the series with Vaccinia virus [5], 4000 nM; in series [7], 45 nM; in the series with Human alphaherpesvirus 1 [8] it was 200 nM; in the series on Hepatitis B virus, 830 nM. Besides, in the series with Human alphaherpesvirus 2, the EC50 is 200 nM. The MCC in series [9] is above 50 µM.

On to `Nc1ccn(C[C@@H](CO)OCP(=O)(O)O)c(=O)n1` [CIDOFOVIR], for which the MCC in series [9] is above 250 µM.

For `CC(C)OC(=O)OCOP(=O)(CO[C@H](C)Cn1cnc2c(N)ncnc21)OCOC(=O)OC(C)C` [TENOFOVIR DISOPROXIL], the Drug metabolism entry in series [15] was “Active”. The CC50 in [1] and in series [3] was above 25000 nM each time. The EC50 with Human alphaherpesvirus 1 [2] was 5800 nM; in series [4], 13 nM; in the series on Vaccinia virus [5], above 50000 nM; in series [7] it was 16 nM; in the series with Human alphaherpesvirus 1 [8], 9600 nM; in the series with Hepatitis B virus, 880 nM. The EC50 in the series on Human alphaherpesvirus 2 was 5800 nM. Also, the half-life in series [16] and in [17] was 1 h in each case. Also, the MCC in series [9] is above 50 µM.
